Experimental data reported in patent publication US10105357B2, “Indication of antibiotic drugs for preparation of cancer inhibition pharmaceutical composition” (LAUNX BIOMEDICAL CO., LTD., priority 2014, dated 2018).
Read-outs that look alike come from different tables or passages of the source.

What was measured:
[1] = system: PC3 (p53−) (Prostate Adenocarcinoma); assay: Cell viability analysis, prostate cancer PC3; format: cell-based, human; conditions: Homo sapiens, 72 h
[2] = system: LoVo (Colorectal Adenocarcinoma); assay: Cell viability analysis, colon cancer LoVo; format: cell-based, human; conditions: Homo sapiens, LoVo, 72 h
[3] = system: MKN-45 (Gastric Adenocarcinoma); assay: Cell viability analysis, gastric cancer MKN-45; format: cell-based, human; conditions: Homo sapiens, MKN-45, 72 h
[4] = system: HL-60 (Acute Promyelocytic Leukemia); assay: Cell viability analysis, leukemia HL-60; format: cell-based, human; conditions: Homo sapiens, HL-60, 72 h
[5] = system: TSGH-8301 (Urinary Bladder Carcinoma); assay: Cell viability analysis, bladder cancer TSGH-8301; format: cell-based, human; conditions: Homo sapiens, 72 h
[6] = system: MCF7 (Mammary Gland, Adenocarcinoma); assay: Cell viability analysis, breast cancer MCF7; format: cell-based, human; conditions: Homo sapiens, MCF7, 72 h
[7] = system: AGS (Gastric Adenocarcinoma); assay: Cell viability analysis, gastric cancer AGS; format: cell-based, human; conditions: Homo sapiens, 72 h
[8] = system: HeLa (Cervix Adenocarcinoma); assay: Cell viability analysis, cervical cancer HeLa; format: cell-based, human; conditions: Homo sapiens, HeLa, 72 h
[9] = system: HCT116 (p53+) (Colorectal Carcinoma); assay: cells; conditions: Homo sapiens, HCT-116, 72 h, read-out: cell viability (survival rate), HCT116
[10] = system: HepG2 (Hepatocellular Carcinoma); assay: Cell viability analysis, hepatic cancer HepG2; format: cell-based, human; conditions: Homo sapiens, HepG2, 72 h
[11] = system: A549 (Lung Adenocarcinoma); assay: Cell viability analysis, lung cancer A549; format: cell-based, human; conditions: Homo sapiens, A549, 72 h
[12] = system: A375 (Amelanotic Melanoma); assay: Cell viability analysis, skin cancer A375; format: cell-based, human; conditions: Homo sapiens, A-375, 72 h
[13] = system: HI650 (Lung Adenocarcinoma); assay: Cell viability analysis, lung cancer HI650; format: cell-based, human; conditions: Homo sapiens, NCI-H1650, 72 h
[14] = system: cancer cell lines; assay: Cell viability analysis (WST-1) on cancer cell lines; format: cell-based, human; conditions: drug 10 μM, 72 hours, WST-1; Table 3
[15] = read-out: cell viability (survival rate), PC3, drug 10 μM, 72 hours, WST-1, OD450 nm
[16] = read-out: cell viability (survival rate), LoVo, drug 10 μM, 72 hours, WST-1, OD450 nm
[17] = read-out: cell viability (survival rate), MKN-45, drug 10 μM, 72 hours, WST-1, OD450 nm
[18] = read-out: cell viability (survival rate), HL-60, drug 10 μM, 72 hours, WST-1, OD450 nm
[19] = read-out: cell viability (survival rate), TSGH, drug 10 μM, 72 hours, WST-1, OD450 nm
[20] = read-out: cell viability (survival rate), MCF7, drug 10 μM, 72 hours, WST-1, OD450 nm
[21] = read-out: cell viability (survival rate), AGS, drug 10 μM, 72 hours, WST-1, OD450 nm
[22] = read-out: cell viability (survival rate), HeLa, drug 10 μM, 72 hours, WST-1, OD450 nm
[23] = read-out: cell viability (survival rate), HepG2, drug 10 μM, 72 hours, WST-1, OD450 nm
[24] = read-out: cell viability (survival rate), A549, drug 10 μM, 72 hours, WST-1, OD450 nm
[25] = read-out: cell viability (survival rate), A375, drug 10 μM, 72 hours, WST-1, OD450 nm
[26] = read-out: cell viability (survival rate), H1650, drug 10 μM, 72 hours, WST-1, OD450 nm

| SMILES | viability at 10 µM [1, 15] | viability at 10 µM [2, 16] | viability at 10 µM [3, 17] | viability at 10 µM [4, 18] | viability at 10 µM [5, 19] | viability at 10 µM [6, 20] | viability at 10 µM [7, 21] | viability at 10 µM [8, 22] | viability at 10 µM [9] | viability at 10 µM [10, 23] | viability at 10 µM [11, 24] | viability at 10 µM [12, 25] | viability at 10 µM [13, 26] | inhibition effect on different cancer cell lines [14] | further results |
| --- | --- | --- | --- | --- | --- | --- | --- | --- | --- | --- | --- | --- | --- | --- | --- |
| CCc1c(Cl)c(O)c(Cl)c(O)c1C(=O)O[C@H]1[C@H](O)[C@H](OC)[C@H](OC/C2=C\C=C\C[C@H](O)/C(C)=C/[C@H](CC)[C@@H](O[C@@H]3OC(C)(C)[C@@H](OC(=O)C(C)C)[C@H](O)[C@@H]3O)/C(C)=C/C(C)=C/C[C@@H]([C@@H](C)O)OC2=O)O[C@@H]1C [Fidaxomicin] | 59.4% | 89.6% | 94.2% | 99.2% | 82.4% | 46.6% | 94.9% | 82.2% | 102% | 99.6% | 40.6% | 70.3% | 61.2% | significant inhibition effect | – |
| CCn1cc(C(=O)O)c(=O)c2cnc(N3CCCC3)nc21 [Piromidic Acid] | 107% | 95.2% | 100% | 95.2% | 90.5% | 99.5% | 85.9% | 95.5% | 89.8% | 73.8% | 80.5% | 86.7% | 67.2% | significant inhibition effect | – |
| O=C([O-])c1ccccc1O.[Na+] [Sodium salicylate] | – | – | – | – | – | – | – | – | 73.5% | – | – | – | – | significant inhibition effect | viability at 10 µM ([1]; read-out: cell viability (survival rate), PC3): 87.9%; viability at 10 µM ([2]; read-out: cell viability (survival rate), LoVo): 102%; viability at 10 µM ([3]; read-out: cell viability (survival rate), MKN-45): 77.9%; viability at 10 µM ([4]; read-out: cell viability (survival rate), HL-60): 94.7%; viability at 10 µM ([5]; read-out: cell viability (survival rate), TSGH): 137%; viability at 10 µM ([6]; read-out: cell viability (survival rate), MCF7): 89%; viability at 10 µM ([7]; read-out: cell viability (survival rate), AGS): 82.1%; viability at 10 µM ([8]; read-out: cell viability (survival rate), HeLa): 94.4%; viability at 10 µM ([10]; read-out: cell viability (survival rate), HepG2): 84.3%; viability at 10 µM ([11]; read-out: cell viability (survival rate), A549): 107%; viability at 10 µM ([12]; read-out: cell viability (survival rate), A375): 74.9%; viability at 10 µM ([13]; read-out: cell viability (survival rate), H1650): 90.1% |
